Experimental findings from US20050215620A1, “Method of treating amyloid beta precursor disorders” (Andrx Labs, LLC, priority 1999, published 2005) are described below.

For assay [1], the system named is Aβ peptides. Description: Extracellular and intracellular [35S]-labeled Aβ peptides in APP-expressing H4, MDCK and CHO cells (pulse-chase, immunoprecipitation, autoradiography). The format is cell-based, human; canine; Chinese hamster (cells expressing human APP). The method, then:
(§1) The three cell lines utilized were: Chinese Hamster Ovary (CHO) cells expressing the 751 amino acid form of APP; Mabin-Darby Canine Kidney (MDCK) cells which overexpress the 695 amino acid form of APP; Human neuroglioma (H4) cells overexpressing the 695 form of human APP. All cells were prepared by the stable introduction of a cDNA coding for human APP. All cell lines were maintained in DMEM containing 10% FBS and antibiotics.
In order to characterize the effects of cholesterol depletion, cell cultures of each cell line were cultured on six-well plates for 4 days in DMEM containing 10% FCLPDS, which lipid depleted medium reduced the external source of cholesterol, in the presence of lovastatin acid (LA) or absence of LA.
For measurement of APP processing and Aβ peptide formation, medium was removed and the cells were washed once with PBS and then incubated for 2 hours in DMEM containing 1 mCi/ml [^35S] Methionine. After this “pulse” period, the cells were either (1) lysed to measure the total labeled APPi and APPm at time zero, or (2) the cells were incubated for 2 hours in fresh, unlabeled complete medium (“chase”) and then lysed. Then the cell supernatants and lysates were treated with the appropriate antibody to calculate the amounts of APPi, APPm, APPs, and Aβ peptides.
To measure Aβ peptides, or to measure APPs, which is the secreted carboxyl-terminal truncated form, cell supernatants were incubated with antibody 6E10, which recognizes the first 15 amino acids of the Aβ peptide that correspond to the COOH-terminal amino acids of APPs . See Buxbaum, J. D., et al. (1994) Proc Natl Acad Sci USA. 91:4489-93, which is incorporated herein by reference.
The incubations with antibody 6E10 or antibody 369 were performed at 4° C. for 75 minutes followed by a 45 minute incubation at 4° C. with either agarose-linked anti-mouse IgG for antibody 6E10 or protein A sepharose for antibody 369. The beads were then washed three times for 10 minutes and then run on either a 10-20% Tris-Tricine Gel for APPs and Aβ peptides or an 8% polyacrylamide gel for cell-associated APR The gels were dried and exposed to a Phosphor Imager® screen (STORM 860, Molecular Dynamics) and exposed for a minimum of two days. The protein bands were visualized on a STORM 860 Phosphor Imager® (Molecular Dynamics) and quantitated using ImageQuant® (Molecular Dynamics). […]
To determine whether a decrease in cholesterol is associated with a change in the amount of extracellular Aβ peptides, the H4, MDCK, and CHO cells, expressing human APPm were incubated for 4 days in the presence or absence of 0.5 μM LA. […] Relative levels of extracellular Aβ peptides were determined under each condition by quantitative Phosphorlmager autoradiography. […]

Assay [2] has as its system APP processing. Description: APP processing (APPs formation, APPm levels) in H4 cells. The class given is cell-based, human. The note with it: 0.5 μM LA. The method, then:
as §1
For measurement of APP processing and Aβ peptide formation, medium was removed and the cells were washed once with PBS and then incubated for 2 hours in DMEM containing 1 mCi/ml [^35S] Methionine. […]
The incubations with antibody 6E10 or antibody 369 were performed at 4° C. for 75 minutes followed by a 45 minute incubation at 4° C. with either agarose-linked anti-mouse IgG for antibody 6E10 or protein A sepharose for antibody 369. […] The protein bands were visualized on a STORM 860 Phosphor Imager® (Molecular Dynamics) and quantitated using ImageQuant® (Molecular Dynamics).
To determine whether cholesterol depletion affects other aspects of APP processing, H4 cells were incubated for four days in the presence or absence of 0.5 μM LA, and subjected to metabolic labeling. The levels of [^35S]-labeled APPi and APPm were determined by irnmunoprecipitation from cell lysates with an antibody against the COOH-terminal of APP, followed by quantitative autoradiography. […]

For assay [3], the system named is APP processing. Description: Extracellular APPs, extracellular Aβ peptides and total APPm in CHO cells. The format is cell-based, Chinese hamster (cells expressing human APP). The method, then:
The three cell lines utilized were: Chinese Hamster Ovary (CHO) cells expressing the 751 amino acid form of APP; Mabin-Darby Canine Kidney (MDCK) cells which overexpress the 695 amino acid form of APP; Human neuroglioma (H4) cells overexpressing the 695 form of human APP. All cells were prepared by the stable introduction of a cDNA coding for human APP. All cell lines were maintained in DMEM containing 10% FBS and antibiotics. […] After this “pulse” period, the cells were either (1) lysed to measure the total labeled APPi and APPm at time zero, or (2) the cells were incubated for 2 hours in fresh, unlabeled complete medium (“chase”) and then lysed. Then the cell supernatants and lysates were treated with the appropriate antibody to calculate the amounts of […], and Aβ peptides. To measure cell-associated, full-length APPi and APPm, or to measure carboxyl-terminal fragments of APP, cell lysates were incubated with antibody 369 which recognizes the carboxyl-terminus of APP. See Buxbaum, J. D., et al. (1990) Proc Natl Acad Sci USA 87:6003-6, which is incorporated herein by reference. […] See Buxbaum, J. D., et al. (1994) Proc Natl Acad Sci USA. 91:4489-93, which is incorporated herein by reference. The incubations with antibody 6E10 or antibody 369 were performed at 4° C. for 75 minutes followed by a 45 minute incubation at 4° C. with either agarose-linked anti-mouse IgG for antibody 6E10 or protein A sepharose for antibody 369. […] The protein bands were visualized on a STORM 860 Phosphor Imager® (Molecular Dynamics) and quantitated using ImageQuant® (Molecular Dynamics). […] Specifically, it was determined that treatment of CHO cells with 0.5 μM LA reduced the amount of extracellular APPs by about 30% of the amount calculated for the control and reduced the amount of extracellular Aβ peptides by about 70% of the amount calculated for the control when no LA was present. The amount of extracellular Aβ peptides and the amount of extracellular APPs were normalized to the amount of total APP found in the cell at the end of cell labeling as described above. […]

Where [4] appears, read: CHO cells, 0.5 μM LA, normalized to total APP.

Some results are limits rather than exact numbers.

In the case of `CC[C@H](C)C(=O)O[C@H]1C[C@@H](C)C=C2C=C[C@H](C)[C@H](CC[C@@H](O)C[C@@H](O)CC(=O)O)[C@H]21` [LA, lovastatin acid], in assay [1] (0.5 μM LA, 4 days, lipid depleted medium, H4, MDCK and CHO cells), the “decrease in amounts of extracellular Aβ peptides as compared to the untreated cells” value was 40-60%. Further, the “LA concentration sufficient to significantly (p<0.001) decrease the amount of extracellular Aβ peptides” value in assay [1] (each cell type, various concentrations of LA) is no less than 0.05 µM. For the same compound, in assay [1] (presence of 0.5 μM LA), the “levels of intracellular Aβ peptides in cell lysates” value is reported as “No detectable levels”. In addition, in assay [1] (printed as 0.5 μM LA), the “reduction of extracellular Aβ peptide levels (weaker effect)” value is on record as less than 20%. Moreover, the “effects on maturation, levels of [35S]-labeled APPm (FIG. 6)” value in assay [2] was “not sufficient to account for the decrease in Aβ peptide levels”. In addition, the “[35S]-labeled APPs formation as compared to control cells (FIG. 5)” value in assay [2] (H4 cells, four days) was “modest decrease”. The “level of total APPm” value in assay [3] (CHO cells treated with 0.5 μM LA (control 3.2×10^6)) was 3.4×10^6 arbitrary units. In addition, in assay [3] (setting [4]), the “reduction of the amount of extracellular APPs relative to control” value was “about 30%” and the “reduction of the amount of extracellular Aβ peptides relative to control” value is given as “about 70%”.
